Test systems include EKVX NSCLC; COLO 205 colon; BT-549 breast; MALME-3M melanoma; SK-MEL-5 melanoma; SN12C renal; T-47D breast; HL-60(TB) leukemia; TK-10 renal; LOX IMVI melanoma.
Holding throughout (assay): NCI-60 cell line screen, 48 h

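These data come from cells grown in 96-well plates and exposed to compound for 48 hours at five concentrations. GI50 marks 50% less growth. TGI: total growth inhibition.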

Regarding `O=C(O)C1C2CC3C(OC(=O)C31)C2Br` (stereo not given), the TGI with EKVX NSCLC, with COLO 205 colon, in the test with BT-549 breast, in the test with MALME-3M melanoma, in the test with SK-MEL-5 melanoma and with SN12C renal was over 100 µM each time. For the same compound, the TGI is over 100 µM in the test on T-47D breast, over 23.4 µM with HL-60(TB) leukemia, over 100 µM in the test with TK-10 renal and over 100 µM in the test with LOX IMVI melanoma.
With `COc1cc(OC)c2c(=O)c(O)c(-c3ccc(OC)c(OC)c3)oc2c1`, the TGI in the test on EKVX NSCLC is over 100 µM; in the test on COLO 205 colon, over 100 µM; with BT-549 breast, over 100 µM; in the test on MALME-3M melanoma it was over 31.6 µM; in the test on SK-MEL-5 melanoma it was over 100 µM; in the test with SN12C renal it was over 100 µM. For the same compound, the TGI is 31.4 µM with T-47D breast, 44.3 µM in the test with HL-60(TB) leukemia, over 100 µM in the test with TK-10 renal and over 100 µM in the test on LOX IMVI melanoma.
Consider `CN1CCN(c2ccc3nc(-c4cc(C(C)(C)C)c(O)c(C(C)(C)C)c4)[nH]c3c2)CC1`, for which the GI50 in the test with EKVX NSCLC is 4.3 µM; in the test with COLO 205 colon it was 2.02 µM; in the test on BT-549 breast it was 2.23 µM; in the test with MALME-3M melanoma, 1.55 µM; in the test on SK-MEL-5 melanoma, 1.76 µM; in the test with SN12C renal it was 4.64 µM. Moreover, the GI50 is 2.86 µM in the test with T-47D breast, 2.22 µM with HL-60(TB) leukemia, 4.79 µM with TK-10 renal and 1.83 µM in the test with LOX IMVI melanoma. For the same compound, the TGI in the test with EKVX NSCLC turned out to be 16.5 µM; in the test with COLO 205 colon, 4.26 µM; with BT-549 breast, 6.43 µM; in the test on MALME-3M melanoma, 2.95 µM; in the test with SK-MEL-5 melanoma, 3.17 µM; in the test on SN12C renal it was 16.5 µM. Besides, the TGI in the test on T-47D breast was 7.61 µM; in the test on HL-60(TB) leukemia, 4.52 µM; in the test with TK-10 renal, 17.2 µM; in the test with LOX IMVI melanoma it was 3.41 µM.
As to `CN1C(=O)CNC(=O)[C@H](NC(=O)c2nc3ccccc3cc2O)CSSC[C@H]1C(=O)NCCc1nc2ccccc2cc1O`, the GI50 is 11 µM with EKVX NSCLC; 2.94 µM in the test with COLO 205 colon; 14.3 µM in the test on BT-549 breast; 15.8 µM in the test with MALME-3M melanoma; 3.05 µM in the test on SK-MEL-5 melanoma; 22.4 µM with SN12C renal. Also, the GI50 with T-47D breast is 8.09 µM; with HL-60(TB) leukemia it was 1.22 µM; in the test with TK-10 renal it was 20.5 µM; in the test on LOX IMVI melanoma it was 0.442 µM. Further, the TGI in the test on EKVX NSCLC was over 61.4 µM; with COLO 205 colon, 12.7 µM; in the test with BT-549 breast, 51.7 µM; in the test with MALME-3M melanoma, 44.1 µM; with SK-MEL-5 melanoma, 12.7 µM; with SN12C renal it was over 63.4 µM. Further, the TGI in the test with T-47D breast is 29.7 µM; in the test on HL-60(TB) leukemia, 5.1 µM; in the test with TK-10 renal, 47.3 µM; in the test on LOX IMVI melanoma it was 6.77 µM.
As to `CS(=O)(=O)CCNCc1ccc(-c2ccc3ncnc(Nc4ccc(OCc5cccc(C(F)(F)F)c5)cc4)c3c2)o1`, the GI50 in the test with EKVX NSCLC was 6.03 µM; in the test with COLO 205 colon, 6.83 µM; in the test with BT-549 breast it was 9.57 µM; in the test on MALME-3M melanoma, 5.28 µM; with SK-MEL-5 melanoma, 6.05 µM; in the test with SN12C renal, 7.81 µM. Also, the GI50 is 7.6 µM with T-47D breast, 4.96 µM in the test with HL-60(TB) leukemia, 3.17 µM in the test with TK-10 renal and 4.53 µM with LOX IMVI melanoma. Moreover, the TGI is over 23.3 µM with EKVX NSCLC; over 15.5 µM in the test with COLO 205 colon; over 21.8 µM in the test with BT-549 breast; 10.5 µM with MALME-3M melanoma; over 13.5 µM in the test with SK-MEL-5 melanoma; over 19.1 µM with SN12C renal. For the same compound, the TGI was over 23 µM with T-47D breast, 10.9 µM with HL-60(TB) leukemia, 11.1 µM in the test with TK-10 renal and 9.32 µM in the test with LOX IMVI melanoma.
With `CCCCCCCCCCCCCCCc1cc(O)ccc1N`, the GI50 with EKVX NSCLC is over 50.6 µM; in the test with COLO 205 colon it was over 9.96 µM; in the test with BT-549 breast it was 0.305 µM; in the test with MALME-3M melanoma, over 62.1 µM; in the test with SK-MEL-5 melanoma, over 100 µM; in the test on SN12C renal it was over 20.1 µM. Also, the GI50 was 0.132 µM in the test on T-47D breast, 0.142 µM with HL-60(TB) leukemia, over 63 µM in the test on TK-10 renal and 1.39 µM in the test on LOX IMVI melanoma. The TGI was over 100 µM in the test on EKVX NSCLC; over 62.5 µM in the test with COLO 205 colon; over 74.7 µM in the test on BT-549 breast; over 100 µM with MALME-3M melanoma; over 100 µM with SK-MEL-5 melanoma; over 100 µM in the test with SN12C renal. Moreover, the TGI with T-47D breast was 1.76 µM; in the test on HL-60(TB) leukemia, 0.532 µM; in the test with TK-10 renal, over 100 µM; in the test with LOX IMVI melanoma, 9.41 µM.
Regarding `CC(ONC(=O)c1cc(C(F)(F)F)cc(C(F)(F)F)c1)C(=O)Nc1ccc(Cl)cc1` (stereo not given), the GI50 in the test on EKVX NSCLC is 4.46 µM; in the test with COLO 205 colon, 5.32 µM; in the test on BT-549 breast it was 3.71 µM; in the test on MALME-3M melanoma, 3.83 µM; in the test on SK-MEL-5 melanoma, 2.79 µM; in the test on SN12C renal it was 5.44 µM. The GI50 is 3.78 µM in the test with T-47D breast, 3.86 µM in the test on HL-60(TB) leukemia, 5.42 µM in the test with TK-10 renal and 4.02 µM in the test with LOX IMVI melanoma. Besides, the TGI was over 63 µM in the test on EKVX NSCLC; 25.8 µM in the test with COLO 205 colon; 16.7 µM in the test on BT-549 breast; 13.6 µM with MALME-3M melanoma; 7.86 µM in the test on SK-MEL-5 melanoma; over 100 µM with SN12C renal. The TGI in the test with T-47D breast is over 60.8 µM; in the test on HL-60(TB) leukemia, 28.3 µM; in the test with TK-10 renal, over 75.1 µM; with LOX IMVI melanoma, 14 µM.
With `CC1(C)N=C(N)N=C(N)N1c1ccc(F)c(C(F)(F)F)c1`, the GI50 in the test on EKVX NSCLC is 1.53 µM; with COLO 205 colon it was 5.11 µM; in the test with BT-549 breast, 1.96 µM; in the test with MALME-3M melanoma, 26.7 µM; in the test on SK-MEL-5 melanoma, 3.04 µM; with SN12C renal, 5.13 µM. For the same compound, the GI50 is over 90.7 µM in the test with T-47D breast, 0.438 µM with HL-60(TB) leukemia, 3.4 µM with TK-10 renal and 0.4 µM in the test on LOX IMVI melanoma. Moreover, the TGI with EKVX NSCLC was over 100 µM; in the test with COLO 205 colon it was over 100 µM; in the test with BT-549 breast it was over 87.9 µM; in the test with MALME-3M melanoma, over 100 µM; with SK-MEL-5 melanoma, over 100 µM; in the test on SN12C renal it was over 100 µM. In addition, the TGI with T-47D breast, in the test on HL-60(TB) leukemia, in the test on TK-10 renal and in the test with LOX IMVI melanoma was over 100 µM throughout.

The values above are taken from PubChem BioAssay (NCI).
